Laboratory results as given in patent US20240109917A1 (ACTELION PHARMACEUTICALS LTD, priority 2020, published 2024).

target: PDGFRβ (Rattus norvegicus (Rat), UniProt Q05030); test: PDGFRβ Cellular Assay (PDGFRb P-Y751 HTRF in A10 cells stimulated with PDGF-BB); assay type: cell-based; settings: read-out: PDGFR Cellular IC50
Procedure, shortened: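 Rat A10 cells, plated overnight, were treated with compound for 3 hours, then stimulated with PDGF-BB (working stock 100 ng/mL in 10% FBS medium). After lysis, PDGFRβ P-Y751 was detected by HTRF.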

Sequence of PDGFRβ (Q05030 32-1097): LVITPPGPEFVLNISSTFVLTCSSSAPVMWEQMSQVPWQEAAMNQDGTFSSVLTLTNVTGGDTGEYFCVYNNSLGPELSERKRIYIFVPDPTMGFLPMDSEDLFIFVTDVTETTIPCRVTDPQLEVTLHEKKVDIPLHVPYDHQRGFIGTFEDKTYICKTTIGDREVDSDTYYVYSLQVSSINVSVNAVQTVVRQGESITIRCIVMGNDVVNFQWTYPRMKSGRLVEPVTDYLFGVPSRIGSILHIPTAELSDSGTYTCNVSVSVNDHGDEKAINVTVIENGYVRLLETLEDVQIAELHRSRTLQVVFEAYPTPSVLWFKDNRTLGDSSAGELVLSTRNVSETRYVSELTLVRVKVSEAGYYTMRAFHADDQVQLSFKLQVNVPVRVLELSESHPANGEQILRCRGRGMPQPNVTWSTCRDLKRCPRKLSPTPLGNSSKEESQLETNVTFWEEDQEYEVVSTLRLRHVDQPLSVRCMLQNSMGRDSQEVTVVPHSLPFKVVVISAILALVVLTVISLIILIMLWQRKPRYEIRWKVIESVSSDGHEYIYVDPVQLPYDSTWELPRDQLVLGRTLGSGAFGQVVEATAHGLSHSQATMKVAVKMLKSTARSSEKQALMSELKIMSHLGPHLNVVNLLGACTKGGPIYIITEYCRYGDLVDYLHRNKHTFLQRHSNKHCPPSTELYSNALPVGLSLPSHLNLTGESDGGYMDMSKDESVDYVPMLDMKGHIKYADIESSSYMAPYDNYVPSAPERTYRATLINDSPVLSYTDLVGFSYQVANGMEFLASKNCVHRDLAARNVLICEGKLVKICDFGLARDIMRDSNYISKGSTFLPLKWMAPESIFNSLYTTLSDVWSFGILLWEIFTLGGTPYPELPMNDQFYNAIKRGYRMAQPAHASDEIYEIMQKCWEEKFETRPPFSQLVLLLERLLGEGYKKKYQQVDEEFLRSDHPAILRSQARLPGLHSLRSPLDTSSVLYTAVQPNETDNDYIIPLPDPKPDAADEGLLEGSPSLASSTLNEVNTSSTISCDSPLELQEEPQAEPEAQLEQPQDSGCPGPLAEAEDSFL

SMILES	IC50 [nM]
Cc1ncc(NC(=O)OCCN(C)C2CCCCC2)cc1NC(=O)c1cnn2cc(-c3cnn(C)c3)sc12 [Example 251, 2-(cyclohexyl(methyl)amino)ethyl (6-methyl-5-(2-(1-methyl-1H-pyrazol-4-yl)pyrazolo[5,1-b]thiazole-7-carboxamido)pyridin-3-yl)carbamate]	28.4
Cc1ncc(NC(=O)OC2CN(C(C)(C)C)C2)cc1NC(=O)c1cnn2cc(-c3cnn(C)c3)sc12 [Example 252, 1-(tert-butyl)azetidin-3-yl (6-methyl-5-(2-(1-methyl-1H-pyrazol-4-yl)pyrazolo[5,1-b]thiazole-7-carboxamido)pyridin-3-yl)carbamate]	79.7
COc1ncccc1-c1cn2ncc(C(=O)Nc3cc(NC(=O)OC[C@@H]4CCCN4C)cnc3C)c2s1 [Example 253, (S)-(1-methylpyrrolidin-2-yl)methyl (5-(2-(2-methoxypyridin-3-yl)pyrazolo[5,1-b]thiazole-7-carboxamido)-6-methylpyridin-3-yl)carbamate]	4.4
